Molecular target: Voltage-dependent L-type calcium channel subunit alpha-1C (Cavia porcellus, UniProt O35505)
Assay: Inhibition of calcium channel in Cavia porcellus (guinea pig) ileum assessed as inhibition of KCl-induced contraction
Assay type: tissue-based

Voltage-dependent L-type calcium channel subunit alpha-1C, sequence (O35505 whole entry): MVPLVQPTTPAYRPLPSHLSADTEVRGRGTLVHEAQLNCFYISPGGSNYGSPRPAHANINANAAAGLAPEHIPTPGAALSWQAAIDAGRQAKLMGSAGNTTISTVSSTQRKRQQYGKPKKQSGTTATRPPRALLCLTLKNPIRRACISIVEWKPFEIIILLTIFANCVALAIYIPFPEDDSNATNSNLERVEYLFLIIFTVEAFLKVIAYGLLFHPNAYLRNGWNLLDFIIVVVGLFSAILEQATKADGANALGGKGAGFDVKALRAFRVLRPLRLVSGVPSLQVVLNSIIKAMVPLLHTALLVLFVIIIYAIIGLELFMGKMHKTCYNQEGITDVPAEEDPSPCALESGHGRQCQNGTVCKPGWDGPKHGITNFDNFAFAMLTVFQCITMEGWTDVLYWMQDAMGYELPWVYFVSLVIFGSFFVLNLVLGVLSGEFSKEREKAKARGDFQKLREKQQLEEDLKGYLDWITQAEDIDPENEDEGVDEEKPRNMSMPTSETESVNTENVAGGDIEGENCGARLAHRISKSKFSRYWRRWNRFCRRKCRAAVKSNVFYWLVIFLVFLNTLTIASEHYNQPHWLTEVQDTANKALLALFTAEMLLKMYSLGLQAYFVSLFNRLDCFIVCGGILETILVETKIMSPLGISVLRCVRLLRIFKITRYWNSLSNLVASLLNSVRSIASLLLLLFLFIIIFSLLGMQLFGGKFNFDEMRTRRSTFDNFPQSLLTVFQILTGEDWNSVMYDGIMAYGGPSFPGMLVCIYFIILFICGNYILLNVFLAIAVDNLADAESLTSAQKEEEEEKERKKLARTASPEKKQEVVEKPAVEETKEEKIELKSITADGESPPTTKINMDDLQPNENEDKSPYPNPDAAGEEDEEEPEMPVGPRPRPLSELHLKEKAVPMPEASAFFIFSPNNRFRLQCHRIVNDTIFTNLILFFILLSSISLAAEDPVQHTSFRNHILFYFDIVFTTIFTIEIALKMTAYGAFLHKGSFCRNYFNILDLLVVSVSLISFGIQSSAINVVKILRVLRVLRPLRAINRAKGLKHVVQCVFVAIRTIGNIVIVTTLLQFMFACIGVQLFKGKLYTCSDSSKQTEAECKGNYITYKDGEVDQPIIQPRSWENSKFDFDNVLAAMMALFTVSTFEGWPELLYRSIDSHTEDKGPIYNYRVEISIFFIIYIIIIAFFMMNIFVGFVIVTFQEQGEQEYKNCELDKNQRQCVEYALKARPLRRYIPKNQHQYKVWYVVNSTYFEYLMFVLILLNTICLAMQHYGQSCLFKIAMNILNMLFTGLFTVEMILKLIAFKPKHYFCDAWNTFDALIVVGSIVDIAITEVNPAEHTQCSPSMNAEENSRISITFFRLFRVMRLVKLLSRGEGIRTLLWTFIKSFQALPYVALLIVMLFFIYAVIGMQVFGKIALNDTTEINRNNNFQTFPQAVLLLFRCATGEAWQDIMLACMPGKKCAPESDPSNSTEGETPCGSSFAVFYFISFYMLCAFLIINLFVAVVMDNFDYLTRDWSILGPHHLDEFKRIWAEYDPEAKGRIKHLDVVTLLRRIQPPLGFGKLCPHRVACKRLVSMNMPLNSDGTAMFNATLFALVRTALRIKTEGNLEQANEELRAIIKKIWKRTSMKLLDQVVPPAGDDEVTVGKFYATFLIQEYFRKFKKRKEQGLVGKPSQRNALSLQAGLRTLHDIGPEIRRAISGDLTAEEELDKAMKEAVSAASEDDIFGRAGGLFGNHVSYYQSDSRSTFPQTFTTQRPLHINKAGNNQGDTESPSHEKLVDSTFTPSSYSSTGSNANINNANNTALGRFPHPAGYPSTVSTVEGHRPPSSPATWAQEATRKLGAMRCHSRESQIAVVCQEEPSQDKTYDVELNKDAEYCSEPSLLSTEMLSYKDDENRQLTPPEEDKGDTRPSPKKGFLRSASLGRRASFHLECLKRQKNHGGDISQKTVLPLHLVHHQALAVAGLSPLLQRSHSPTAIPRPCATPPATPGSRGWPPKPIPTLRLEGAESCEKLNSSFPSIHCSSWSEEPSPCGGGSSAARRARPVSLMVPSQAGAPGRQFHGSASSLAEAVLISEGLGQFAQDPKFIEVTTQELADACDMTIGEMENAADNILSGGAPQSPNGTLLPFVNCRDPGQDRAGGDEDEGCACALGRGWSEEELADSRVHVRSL

Going from `CCc1nc(C2C(C(=O)OCc3ccccc3)=C(C)NC(C)=C2C(=O)OCc2ccccc2)c(Cl)[nH]1` to `CCc1nc(C2C(C(=O)OCCc3ccccc3)=C(C)NC(C)=C2C(=O)OCCc2ccccc2)c(Cl)[nH]1`, the IC50 falls from 0.906 nM to 0.0437 nM (21-fold).

`CCc1nc(C2C(C(=O)OC)=C(C)NC(C)=C2C(=O)OCCc2ccccc2)c(Cl)[nH]1` (stereo not drawn) and `CCOC(=O)C1=C(C)NC(C)=C(C(=O)OCCc2ccccc2)C1c1nc(CC)[nH]c1Cl` (stereo not drawn) are within 1.5-fold of each other in IC50: 0.0309 nM for the first, 0.0457 nM for the second.

First: CCc1nc(Cl)c(C2C(C(=O)OC)=C(C)NC(C)=C2C(=O)OC)[nH]1
Second: CCOC(=O)C1=C(C)NC(C)=C(C(=O)OC)C1c1[nH]c(CC)nc1Cl (stereo not drawn)
The IC50 of the first is 3.4-fold lower: 0.596 nM for the first, 2.02 nM for the second. The first is the more potent here.

Compared with `CCOC(=O)C1=C(C)NC(C)=C(C(=O)OCC)C1c1[nH]c(CC)nc1Cl`, `CCCOC(=O)C1=C(C)NC(C)=C(C(=O)OCC)C1c1[nH]c(CC)nc1Cl` (stereo not drawn) is 3.4-fold higher in IC50: 0.158 nM for the first, 0.543 nM for the second. The first is the more potent here.

`CCCOC(=O)C1=C(C)NC(C)=C(C(=O)OCCC)C1c1[nH]c(CC)nc1Cl` and `CCCOC(=O)C1=C(C)NC(C)=C(C(=O)OC)C1c1[nH]c(CC)nc1Cl` (stereo not drawn) are within 1.5-fold of each other in IC50: 0.13 nM for the first, 0.146 nM for the second.

Going from `CCc1nc(Cl)c(C2C(C(=O)OC(C)C)=C(C)NC(C)=C2C(=O)OC(C)C)[nH]1` to `CCc1nc(Cl)c(C2C(C(=O)OC)=C(C)NC(C)=C2C(=O)OC(C)C)[nH]1` (stereo not drawn), the IC50 falls from 0.748 nM to 0.488 nM (1.5-fold). The second is the more potent here.

First: CCc1nc(Cl)c(C2C(C(=O)OCC(C)C)=C(C)NC(C)=C2C(=O)OCC(C)C)[nH]1
Second: CCOC(=O)C1=C(C)NC(C)=C(C(=O)OC(C)C)C1c1[nH]c(CC)nc1Cl (stereo not drawn)
The IC50 of the first is 4.7-fold higher: 2.64 nM for the first, 0.564 nM for the second.

`CCc1nc(Cl)c(C2C(C(=O)OC(C)(C)C)=C(C)NC(C)=C2C(=O)OC(C)(C)C)[nH]1` and `CCc1nc(Cl)c(C2C(C(=O)OC)=C(C)NC(C)=C2C(=O)OC(C)(C)C)[nH]1` (stereo not drawn) are within 1.5-fold of each other in IC50: 34.2 nM for the first, 50.8 nM for the second.

Compared with `CCc1nc(Cl)c(C2C(C(=O)OC3CCCC3)=C(C)NC(C)=C2C(=O)OC2CCCC2)[nH]1`, `CCc1nc(Cl)c(C2C(C(=O)OC3CCCCC3)=C(C)NC(C)=C2C(=O)OC2CCCCC2)[nH]1` is 1.6-fold lower in IC50: 0.212 nM for the first, 0.132 nM for the second. The second is the more potent here.

Going from `CCc1nc(Cl)c(C2C(C(=O)OCCCc3ccccc3)=C(C)NC(C)=C2C(=O)OCCCc2ccccc2)[nH]1` to `CCOC(=O)C1=C(C)NC(C)=C(C(=O)OCc2ccccc2)C1c1[nH]c(CC)nc1Cl` (stereo not drawn), the IC50 rises from 0.0668 nM to 2.66 nM (40-fold). The first is the more potent here.

Compared with `CCc1nc(Cl)c(C2C(C(=O)OC)=C(C)NC(C)=C2C(=O)OCc2ccccc2)[nH]1` (stereo not drawn), `CCOC(=O)C1=C(C)NC(C)=C(C(=O)OC(C)(C)C)C1c1[nH]c(CC)nc1Cl` (stereo not drawn) is 57-fold higher in IC50: 1.75 nM for the first, 99.8 nM for the second. The first is the more potent here.

Molecule `CCOC(=O)C1=C(C)NC(C)=C(C(=O)OCC2CCCCC2)C1c1[nH]c(CC)nc1Cl` (stereo not drawn) has an IC50 of 1.07 nM.
